{"source": "patent EP2762573A1", "about": "“In vitro method for determining cholestatic properties of a compound” (priority 2013, dated 2014)", "key": {"SERPINE1": {"system": "SERPINE1", "experiment": "Biomarkers validation by q-pcr in precision cut liver slices: SERPINE1 expression", "procedure": "(§1) 23-weeks old male C57BL/6 mice were obtained from Harlan (Horst, The Netherlands). Animals were kept for 1 week at a housing temperature of 22°C and at a relative humidity of 30-70%. The lighting cycle was 12-h light and 12-h dark. At the age of 24 weeks animals were sacrificed by an overdose of isoflurane. The treatment protocol was approved by the Ethical Committee for Animal Experiments at Wageningen University.\n(§2) Immediately after the animals were killed the liver was perfused with PBS and placed in ice-cold Krebs-Henseleit buffer (KHB) (pH 7.4, supplemented with 11 mM glucose). Liver tissue was transported to the laboratory within approximately 30 min and cylindrical liver cores were produced using a surgical biopsy punch with diameter of 5 mm (KAI, SynErgo Europe, Romania). Liver cores were placed in a Krumdieck tissue slicer (Alabama Research and Development, Munford, AL) filled with ice-cold KHB aerated with carbogen and supplemented with 11 mM glucose. Precesion cut liver slices (PCLS) with a diameter of 5 mm, a thickness of 0.2 mm and a weight of approximately 10 mg were prepared. Immediately after preparation, slices were transferred into culture plates filled with pre-warmed (37 degrees C) Williams E medium (WEM). Three liver slices were pre-cultured in one well of the 6-well plate filled with 4 ml of WEM for one hour with continuous shaking (70 rpm). Incubations were performed in an oxygen controlled incubator (Galaxy 48 R New Brunswick, Nijmegen, the Netherlands) at 80% of oxygen; 5% CO2 and the remaining gas volume was filled up to […] with N2. After one hour of pre-incubation, media were removed and replaced with fresh media containing test compounds or appropriate solvents. After incubations, samples were snap-frozen in liquid nitrogen and stored in -80 °C for further analysis. Samples dedicated to histology were stored in 4 % formaldehyde at room temperature.\n(§3) PCLS were incubated at the same conditions as described above. Slices were exposed for 24 and 48 hours to one concentration of the tested compounds or controls. Concentrations used in the exposure experiments were preselected in the dose selection experiments for each drug individually. […] For the necrotic compounds: 1000 uM acetaminophen, 5 µM paraquat and 1000 uM isoniazid. Liver slices obtained from five mice were used in five toxic compound or control exposure experiments performed at the same time. Dose selection experiments and exposure experiments were performed at different days. Therefore, ATP, LDH, and protein assays were performed again for the exposure experiments to confirm that the selected doses did also not affect slice viability in these experiments.\n(§4) In further studies, expression of ten candidate biomarkers in PCLS was analyzed by q-pcr using the Biorad CFX96 TM Real-Time Detection System (Bio-Rad, Veenendaal, The Netherlands) with the following cycling conditions: 15 min 95°C followed by 40 cycles of 15s 95 °C and 1 min 60 °C. Reactions were performed in 10 µl and contained 20 ng cDNA, 1x TaqMan PCR Master Mix (Applied Biosystems, Foster City, CA), and depending on the analysed gene, 250 nM probe and 900 nM primer (for actin b) or 1xTaqMan gene expression assay (for the remaining genes) (Applied Biosystems, foster City, CA)."}, "Nme6": {"system": "Nme6", "experiment": "Biomarkers validation by q-pcr in precision cut liver slices: Nme6 expression", "procedure": "as §1, §2, §3, §4"}, "Myo1e": {"system": "Myo1e", "experiment": "Biomarkers validation by q-pcr in precision cut liver slices: Myo1e expression", "procedure": "as §1, §2, §3, §4"}, "ABCG8": {"system": "ABCG8", "experiment": "Biomarkers validation by q-pcr in precision cut liver slices: ABCG8 expression", "procedure": "as §1, §2, §3, §4"}, "ABCG5": {"system": "ABCG5", "experiment": "Biomarkers validation by q-pcr in precision cut liver slices: ABCG5 expression", "procedure": "as §1, §2, §3, §4"}, "KLF15": {"system": "KLF15", "experiment": "Biomarkers validation by q-pcr in precision cut liver slices: KLF15 expression", "procedure": "as §1, §2, §3, §4"}, "PCLS": {"system": "PCLS", "experiment": "Cytotoxicity analysis - dose selection experiments (LDH, ATP, protein assay)", "settings": "mouse PCLS; LDH, ATP, and protein assay; concentration then used in exposure experiments", "procedure": "as §1, §2, §3"}, "BAAT": {"system": "BAAT", "experiment": "Biomarkers validation by q-pcr in precision cut liver slices: BAAT expression", "procedure": "as §1, §2, §3, §4"}, "Bcl2l11": {"system": "Bcl2l11", "experiment": "Biomarkers validation by q-pcr in precision cut liver slices: Bcl2l11 expression", "procedure": "as §1, §2, §3, §4"}, "Mras": {"system": "Mras", "experiment": "Biomarkers validation by q-pcr in precision cut liver slices: Mras expression", "procedure": "as §1, §2, §3, §4"}, "Parp16": {"system": "Parp16", "experiment": "Biomarkers validation by q-pcr in precision cut liver slices: Parp16 expression", "procedure": "as §1, §2, §3, §4"}}}
{"smiles": "C[n+]1ccc(-c2cc[n+](C)cc2)cc1", "note": "[PQ, paraquat]", "values": [{"measurement": "*fold change 1, gene expression level SERPINE1", "setting": "SERPINE1", "result": "2,7"}, {"measurement": "*fold change 2, gene expression level SERPINE1", "setting": "SERPINE1", "result": "2,3"}, {"measurement": "*fold change 3, gene expression level SERPINE1", "setting": "SERPINE1", "result": "2,7"}, {"measurement": "*fold change 4, gene expression level SERPINE1", "setting": "SERPINE1", "result": "1,3"}, {"measurement": "*fold change 5, gene expression level SERPINE1", "setting": "SERPINE1", "result": "1,9"}, {"measurement": "MW test, gene expression level SERPINE1", "setting": "SERPINE1; Mann-Whitney test vs controls, 5 mice, mouse PCLS, same concentrations as fold change columns", "result": "* (A p-value <0.05 was considered significant)"}, {"measurement": "*fold change 1, gene expression level Nme6", "setting": "Nme6", "result": "1,1"}, {"measurement": "*fold change 2, gene expression level Nme6", "setting": "Nme6", "result": "-1,2"}, {"measurement": "*fold change 3, gene expression level Nme6", "setting": "Nme6", "result": "1,0"}, {"measurement": "*fold change 4, gene expression level Nme6", "setting": "Nme6", "result": "1,1"}, {"measurement": "*fold change 5, gene expression level Nme6", "setting": "Nme6", "result": "1,2"}, {"measurement": "*fold change 1, gene expression level Myo 1e", "setting": "Myo1e", "result": "1,1"}, {"measurement": "*fold change 2, gene expression level Myo 1e", "setting": "Myo1e", "result": "1,4"}, {"measurement": "*fold change 3, gene expression level Myo 1e", "setting": "Myo1e", "result": "1,1"}, {"measurement": "*fold change 4, gene expression level Myo 1e", "setting": "Myo1e", "result": "1,2"}, {"measurement": "*fold change 5, gene expression level Myo 1e", "setting": "Myo1e", "result": "1,2"}, {"measurement": "*fold change 1, gene expression level ABCG8", "setting": "ABCG8", "result": "1,0"}, {"measurement": "*fold change 2, gene expression level ABCG8", "setting": "ABCG8", "result": "-1,2"}, {"measurement": "*fold change 3, gene expression level ABCG8", "setting": "ABCG8", "result": "1,8"}, {"measurement": "*fold change 4, gene expression level ABCG8", "setting": "ABCG8", "result": "-1,3"}, {"measurement": "*fold change 5, gene expression level ABCG8", "setting": "ABCG8", "result": "-1,4"}, {"measurement": "*fold change 1, gene expression level ABCG5", "setting": "ABCG5", "result": "1,1"}, {"measurement": "*fold change 2, gene expression level ABCG5", "setting": "ABCG5", "result": "1,1"}, {"measurement": "*fold change 3, gene expression level ABCG5", "setting": "ABCG5", "result": "1,7"}, {"measurement": "*fold change 4, gene expression level ABCG5", "setting": "ABCG5", "result": "-1,3"}, {"measurement": "*fold change 5, gene expression level ABCG5", "setting": "ABCG5", "result": "-1,6"}, {"measurement": "*fold change 1, gene expression level KLF15", "setting": "KLF15", "result": "1,3"}, {"measurement": "*fold change 2, gene expression level KLF15", "setting": "KLF15", "result": "-1,0"}, {"measurement": "*fold change 3, gene expression level KLF15", "setting": "KLF15", "result": "1,3"}, {"measurement": "*fold change 4, gene expression level KLF15", "setting": "KLF15", "result": "1,1"}, {"measurement": "*fold change 5, gene expression level KLF15", "setting": "KLF15", "result": "-1,2"}, {"measurement": "highest concentration that did not cause significant increase of toxicity", "setting": "PCLS", "result": 5, "unit": "µM"}, {"measurement": "*fold change 1, gene expression level BAAT", "setting": "BAAT", "result": "-1,2"}, {"measurement": "*fold change 2, gene expression level BAAT", "setting": "BAAT", "result": "-1,0"}, {"measurement": "*fold change 3, gene expression level BAAT", "setting": "BAAT", "result": "1,7"}, {"measurement": "*fold change 4, gene expression level BAAT", "setting": "BAAT", "result": "1,1"}, {"measurement": "*fold change 5, gene expression level BAAT", "setting": "BAAT", "result": "-1,4"}, {"measurement": "*fold change 1, gene expression level Bcl2111", "setting": "Bcl2l11", "result": "1,3"}, {"measurement": "*fold change 2, gene expression level Bcl2111", "setting": "Bcl2l11", "result": "1,1"}, {"measurement": "*fold change 3, gene expression level Bcl2111", "setting": "Bcl2l11", "result": "1,1"}, {"measurement": "*fold change 4, gene expression level Bcl2111", "setting": "Bcl2l11", "result": "1,2"}, {"measurement": "*fold change 5, gene expression level Bcl2111", "setting": "Bcl2l11", "result": "1,1"}, {"measurement": "*fold change 1, gene expression level Mras", "setting": "Mras", "result": "1,4"}, {"measurement": "*fold change 2, gene expression level Mras", "setting": "Mras", "result": "1,3"}, {"measurement": "*fold change 3, gene expression level Mras", "setting": "Mras", "result": "1,1"}, {"measurement": "*fold change 4, gene expression level Mras", "setting": "Mras", "result": "1,1"}, {"measurement": "*fold change 5, gene expression level Mras", "setting": "Mras", "result": "1,4"}, {"measurement": "*fold change 1, gene expression level Parp 16", "setting": "Parp16", "result": "1,6"}, {"measurement": "*fold change 2, gene expression level Parp 16", "setting": "Parp16", "result": "1,0"}, {"measurement": "*fold change 3, gene expression level Parp 16", "setting": "Parp16", "result": "1,0"}, {"measurement": "*fold change 4, gene expression level Parp 16", "setting": "Parp16", "result": "1,1"}, {"measurement": "*fold change 5, gene expression level Parp 16", "setting": "Parp16", "result": "1,4"}]}
